Results on 18 compounds are retold here after US10723707B2, “Heterocyclic substituted 2-amino quinazoline derivatives for the treatment of viral infections” (JANSSEN SCIENCES IRELAND UNLIMITED COMPANY, priority 2012, dated 2020).

Format in all cases: cell-based
The target in test [1] is T1, human TLR8 (Homo sapiens, UniProt Q9NR97).
T1 construct: expressed in transfected cells; host or cells: HEK293
T1 sequence (Q9NR97 27-1041): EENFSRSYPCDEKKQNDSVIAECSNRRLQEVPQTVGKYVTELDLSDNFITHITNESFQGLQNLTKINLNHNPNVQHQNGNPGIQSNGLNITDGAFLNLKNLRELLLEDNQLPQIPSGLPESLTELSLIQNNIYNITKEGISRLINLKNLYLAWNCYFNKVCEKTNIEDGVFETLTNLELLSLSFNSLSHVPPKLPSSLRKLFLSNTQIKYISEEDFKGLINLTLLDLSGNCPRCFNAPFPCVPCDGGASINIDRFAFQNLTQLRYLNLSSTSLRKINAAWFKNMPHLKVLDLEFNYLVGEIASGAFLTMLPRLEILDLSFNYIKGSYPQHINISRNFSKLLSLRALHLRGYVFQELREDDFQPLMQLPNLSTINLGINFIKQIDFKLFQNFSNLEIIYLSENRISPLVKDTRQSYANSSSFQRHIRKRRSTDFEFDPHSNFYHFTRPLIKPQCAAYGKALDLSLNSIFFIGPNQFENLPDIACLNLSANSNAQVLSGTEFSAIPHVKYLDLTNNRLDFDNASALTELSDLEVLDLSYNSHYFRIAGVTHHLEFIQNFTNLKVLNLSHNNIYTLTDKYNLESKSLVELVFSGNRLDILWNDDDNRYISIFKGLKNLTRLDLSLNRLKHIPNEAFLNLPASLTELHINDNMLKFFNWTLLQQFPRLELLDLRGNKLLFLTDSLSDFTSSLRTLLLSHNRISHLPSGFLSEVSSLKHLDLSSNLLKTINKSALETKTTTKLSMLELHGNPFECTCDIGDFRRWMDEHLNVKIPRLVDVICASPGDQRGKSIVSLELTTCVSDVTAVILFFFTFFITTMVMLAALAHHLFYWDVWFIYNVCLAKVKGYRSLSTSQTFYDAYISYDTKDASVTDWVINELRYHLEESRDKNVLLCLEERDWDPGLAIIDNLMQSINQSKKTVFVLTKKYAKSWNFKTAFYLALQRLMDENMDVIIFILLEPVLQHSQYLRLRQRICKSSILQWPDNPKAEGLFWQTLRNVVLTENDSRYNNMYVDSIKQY
Nature of the test: TLR8 cellular NFκB-luc reporter assay in transiently transfected HEK293 cells. As to conditions: lowest effective concentration, 6 hours incubation. On the procedure:
(§1) The ability of compounds to activate human TLR7 and/or TLR8 was assessed in a cellular reporter assay using HEK293 cells transiently transfected with a TLR7 or TLR8 expression vector and NFκB-luc reporter construct.
(§2) Briefly, HEK293 cells were grown in culture medium (DMEM supplemented with 10% FCS and 2 mM Glutamine). For transfection of cells in 15 cm dishes, cells were detached with Trypsin-EDTA, transfected with a mix of CMV-TLR7 or TLR8 plasmid (1700 ng), NFκB-luc plasmid (850 ng) and a transfection reagent and incubated for 48 h at 37° C. in a humidified 5% CO2 atmosphere. Transfected cells were then washed in PBS, detached with Trypsin-EDTA and resuspended in medium to a density of 1.25×10^5 cells/mL. Forty microliters of cells were then dispensed into each well in 384-well plates, where 200 nL of compound in 100% DMSO was already present. Following 6 hours incubation at 37° C., 5% CO2, the luciferase activity was determined by adding 15 μL of Steady Lite Plus substrate (Perkin Elmer) to each well and readout performed on a ViewLux ultraHTS microplate imager (Perkin Elmer). Dose response curves were generated from measurements performed in quadruplicates. Lowest effective concentrations (LEC) values, defined as the concentration that induces an effect which is at least two fold above the standard deviation of the assay, were determined for each compound.

For test [2], the system named is interferon-stimulated responsive elements (ISRE). As to the kind of experiment: Activation of ISRE promoter elements in HEK-ISREluc cells by conditioned media from PBMC. As to conditions: Homo sapiens, compound concentration applied to PBMCs, supernatant transferred to HEK-ISREluc cells, 24 hours, read-out: HEK-ISRE luc (LEC). The method, then: The potential of compounds to induce IFN-I was also evaluated by measuring the activation of interferon-stimulated responsive elements (ISRE) by conditioned media from PBMC. The ISRE element of sequence GAAACTGAAACT (SEQ ID: 1) is highly responsive to the STAT1-STAT2-IRF9 transcription factor, activated upon binding of IFN-I to their receptor IFNAR (Clontech, PT3372-5W). The plasmid pISRE-Luc from Clontech (ref. 631913) contains 5 copies of this ISRE element, followed by the firefly luciferase ORF. A HEK293 cell line stably transfected with pISRE-Luc (HEK-ISREluc) was established to profile the conditioned PBMC cell culture media.
Briefly, PBMCs were prepared from buffy coats of at least two donors using a standard Ficoll centrifugation protocol. Isolated PBMCs were resuspended in RPMI medium supplemented with 10% human AB serum and 2×10^5 cells/well were dispensed into 384-well plates containing compounds (70 μL total volume). After overnight incubation, 10 μL of supernatant was transferred to 384-well plates containing 5×10^3 HEK-ISREluc cells/well in 30 μL (plated the day before). Following 24 hours of incubation, activation of the ISRE elements was measured by assaying luciferase activity using 40 μL/well Steady Lite Plus substrate (Perkin Elmer) and measured with ViewLux ultraHTS microplate imager (Perkin Elmer). The stimulating activity of each compound on the HEK-ISREluc cells was reported as LEC value, defined as the compound concentration applied to the PBMCs resulting in a luciferase activity at least two fold above the standard deviation of the assay. The LEC in turn indicates the degree of ISRE activation on transfer of a defined amount of PBMC culture medium. Recombinant interferon α-2a (Roferon-A) was used as a standard control compound.

The target of test [3] is T2, human TLR7 (Homo sapiens, UniProt Q9NYK1).
T2 construct: expressed in transfected cells; host or cells: HEK293
T2 sequence (Q9NYK1 27-1049): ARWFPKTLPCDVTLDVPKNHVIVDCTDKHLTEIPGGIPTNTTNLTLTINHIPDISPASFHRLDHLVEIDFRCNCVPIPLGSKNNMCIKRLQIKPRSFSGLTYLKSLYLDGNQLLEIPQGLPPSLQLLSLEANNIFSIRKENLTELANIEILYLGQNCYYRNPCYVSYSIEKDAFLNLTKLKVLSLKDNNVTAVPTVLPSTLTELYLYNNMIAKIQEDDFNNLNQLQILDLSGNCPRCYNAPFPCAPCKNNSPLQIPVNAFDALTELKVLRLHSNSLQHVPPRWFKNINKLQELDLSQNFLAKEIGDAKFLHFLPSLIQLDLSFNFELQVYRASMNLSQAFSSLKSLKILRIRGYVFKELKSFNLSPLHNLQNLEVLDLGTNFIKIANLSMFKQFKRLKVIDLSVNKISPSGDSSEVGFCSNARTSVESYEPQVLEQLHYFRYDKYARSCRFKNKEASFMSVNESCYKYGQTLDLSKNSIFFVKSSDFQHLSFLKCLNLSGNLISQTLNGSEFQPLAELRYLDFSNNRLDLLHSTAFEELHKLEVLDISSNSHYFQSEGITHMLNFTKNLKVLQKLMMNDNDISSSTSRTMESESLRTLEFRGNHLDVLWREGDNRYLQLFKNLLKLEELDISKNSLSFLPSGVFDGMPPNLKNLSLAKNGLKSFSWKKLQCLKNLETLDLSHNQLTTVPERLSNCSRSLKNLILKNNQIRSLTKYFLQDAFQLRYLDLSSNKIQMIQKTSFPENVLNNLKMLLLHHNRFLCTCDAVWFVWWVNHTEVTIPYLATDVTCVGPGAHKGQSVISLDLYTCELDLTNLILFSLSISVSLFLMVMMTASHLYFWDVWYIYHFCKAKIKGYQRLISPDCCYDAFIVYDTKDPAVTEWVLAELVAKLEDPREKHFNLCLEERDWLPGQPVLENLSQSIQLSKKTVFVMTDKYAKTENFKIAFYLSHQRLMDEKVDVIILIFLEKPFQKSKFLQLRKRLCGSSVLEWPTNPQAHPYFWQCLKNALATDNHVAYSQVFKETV
As to the kind of experiment: TLR7 cellular NFκB-luc reporter assay in transiently transfected HEK293 cells. As to conditions: lowest effective concentration, 6 hours incubation. On the procedure:
as §1, §2
Background: Reporter assays use an easily measured gene product as a stand-in for the process of interest.

`C[C@@H](Nc1nc(N)nc2ccccc12)c1ccccn1` (single isomer, unassigned) [Compound 1]: the “Human TLR 8 (LEC)” value in test [1] was above 25 µM. Besides, the minimal effective concentration in test [2] turned out to be 0.61 µM. Moreover, the “Human TLR 7 (LEC)” value in test [3] stood at 0.72 µM.

On to `COc1cccc2nc(N)nc(N[C@H](C)c3ccccn3)c12` (single isomer, unassigned) [Compound 2], for which the “Human TLR 8 (LEC)” value in test [1] was above 25 µM. Besides, in test [2], the minimal effective concentration is 0.49 µM. Moreover, the “Human TLR 7 (LEC)” value in test [3] was found to be 0.94 µM.

On to `COc1cccc2nc(N)nc(N[C@H](c3ccccn3)C(F)(F)F)c12` (single isomer, unassigned) [Compound 3], for which, in test [1], the “Human TLR 8 (LEC)” value was above 25 µM. For the same compound, in test [2], the minimal effective concentration is 0.47 µM. For the same compound, in test [3], the “Human TLR 7 (LEC)” value turned out to be 0.76 µM.

As for `C[C@@H](Nc1nc(N)nc2cc(F)ccc12)c1ccccn1` (single isomer, unassigned) [Compound 4], in test [1], the “Human TLR 8 (LEC)” value was determined as 19.8 µM. In addition, in test [2], the minimal effective concentration is 0.59 µM. Besides, the “Human TLR 7 (LEC)” value in test [3] turned out to be 0.92 µM.

In the case of `Cc1ccc2c(N[C@H](C)c3ccccn3)nc(N)nc2c1` (single isomer, unassigned) [Compound 5], the “Human TLR 8 (LEC)” value in test [1] is 14.7 µM. Moreover, the minimal effective concentration in test [2] came out at 0.11 µM. Also, the “Human TLR 7 (LEC)” value in test [3] amounted to 0.53 µM.

As for `COc1ccc2c(N[C@H](C)c3ccccn3)nc(N)nc2c1` (single isomer, unassigned) [Compound 6], in test [1], the “Human TLR 8 (LEC)” value was above 25 µM. The minimal effective concentration in test [2] came to 0.64 µM. In test [3], the “Human TLR 7 (LEC)” value is 3.75 µM.

In the case of `C[C@@H](Nc1nc(N)nc2cc(Cl)ccc12)c1ccccn1` (single isomer, unassigned) [Compound 7], the “Human TLR 8 (LEC)” value in test [1] came to 16.4 µM. Besides, the minimal effective concentration in test [2] turned out to be 0.38 µM. In addition, the “Human TLR 7 (LEC)” value in test [3] is 0.82 µM.

Take `COC(=O)c1ccc2c(N[C@H](C)c3ccccn3)nc(N)nc2c1` (single isomer, unassigned) [Compound 8]: the minimal effective concentration in test [2] was 2.11 µM. In addition, in test [3], the “Human TLR 7 (LEC)” value turned out to be 4.94 µM.

For the compound `C[C@@H](Nc1nc(N)nc2c(F)cccc12)c1ccccn1` (single isomer, unassigned) [Compound 9], in test [1], the “Human TLR 8 (LEC)” value was above 25 µM. Further, the minimal effective concentration in test [2] stood at 1.68 µM. Moreover, the “Human TLR 7 (LEC)” value in test [3] is 5.21 µM.

As for `COc1cccc2nc(N)nc(N[C@H](C)c3nccs3)c12` (single isomer, unassigned) [Compound 10], in test [1], the “Human TLR 8 (LEC)” value amounted to 12.3 µM. For the same compound, in test [2], the minimal effective concentration was found to be 0.11 µM. In addition, the “Human TLR 7 (LEC)” value in test [3] worked out at 0.42 µM.

Take `COc1cccc2nc(N)nc(N[C@H](C)c3cnn(C)c3)c12` (single isomer, unassigned) [Compound 16]: the “Human TLR 8 (LEC)” value in test [1] worked out at 9.14 µM. Also, in test [2], the minimal effective concentration was 0.55 µM. For the same compound, the “Human TLR 7 (LEC)” value in test [3] amounted to 2.44 µM.

As to `C[C@H](Nc1nc(N)nc2cccc(F)c12)c1ccccn1` (single isomer, unassigned) [Compound 18], the “Human TLR 8 (LEC)” value in test [1] was 24.3 µM. Besides, the minimal effective concentration in test [2] stood at 7.83 µM. In addition, the “Human TLR 7 (LEC)” value in test [3] was determined as 8.25 µM.

In the case of `COc1cccc2nc(N)nc(N[C@H](C)c3cccc(C)n3)c12` (single isomer, unassigned) [Compound 20], the “Human TLR 8 (LEC)” value in test [1] is above 25 µM. In test [2], the minimal effective concentration was found to be 0.62 µM. Also, the “Human TLR 7 (LEC)” value in test [3] worked out at 1.46 µM.

Consider `CCn1ncnc1[C@H](C)Nc1nc(N)nc2cccc(OC)c12` (single isomer, unassigned) [Compound 21], for which the “Human TLR 8 (LEC)” value in test [1] was determined as 8.85 µM. In test [2], the minimal effective concentration came to 0.54 µM. For the same compound, the “Human TLR 7 (LEC)” value in test [3] was 6.1 µM.

`CCc1noc([C@@H](C)Nc2nc(N)nc3cccc(OC)c23)n1` (single isomer, unassigned) [Compound 25]: the “Human TLR 8 (LEC)” value in test [1] is 6.62 µM. In test [2], the minimal effective concentration stood at 0.49 µM. For the same compound, in test [3], the “Human TLR 7 (LEC)” value amounted to 1.95 µM.

Consider `CCN(CC)C(=O)c1ccc2c(N[C@H](C)c3ccccn3)nc(N)nc2c1` (single isomer, unassigned) [Compound 26], for which the “Human TLR 8 (LEC)” value in test [1] was above 25 µM. Besides, the minimal effective concentration in test [2] was found to be 7.33 µM. Also, the “Human TLR 7 (LEC)” value in test [3] stood at 2.14 µM.

`CNC(=O)c1ccc2c(N[C@H](C)c3ccccn3)nc(N)nc2c1` (single isomer, unassigned) [Compound 27]: the “Human TLR 8 (LEC)” value in test [1] is above 25 µM. The minimal effective concentration in test [2] is 5.04 µM. In addition, the “Human TLR 7 (LEC)” value in test [3] amounted to 8.24 µM.

For `COCCOc1cccc2nc(N)nc(NCc3cc(C)on3)c12` [Compound 29], the “Human TLR 8 (LEC)” value in test [1] was found to be 8.15 µM. For the same compound, in test [3], the “Human TLR 7 (LEC)” value was 0.082 µM.
